Experimental data from patent US6723897B2, “Methods for controlling gibberellin levels” (Monsanto Technology, LLC, priority 1998, dated 2004).
“Also recorded” adds a separate entry of the source.

Legend:
Type in all cases: in vivo, Glycine max
[1] = system: constitutively GA-deficient transgenic dwarf soybean line 719; assay: Experiment I greenhouse test, seed imbibition, GA-deficient soybean; parameters: Observation on Transgenic Line 719: key: −1: treated plants are shorter as compared to untreated plants; 0: treated plants had the same stature as untreated plants; 1: treated plants are slightly elongated as compared to untreated plants; 2: treated plants are moderately elongated as compared to untreated plants; 3: treated plants are highly elongated as compared to untreated plants; 4: treated plants are extremely elongated as compared to untreated plants; conditions: 0.25 mg/ml; for effect in both the constitutive transgenic dwarf and wild-type soybean lines: imbibition, lines 719 and A3237
Source text: Seeds are covered with 0.5″ of vermiculite.

[2] = system: constitutively GA-deficient transgenic dwarf soybean line 719; assay: Fifth and sixth field tests, emergence after seed imbibition; conditions: for Total Emerged: 50 seeds imbibed 5 hours
Procedure: Fresh stock solutions of compounds are prepared for this test. Kaurenoic acid is tested at 0.025 and 0.25 mg/ml; GA3 is tested at 0.025, 0.25, and 0.5 mg/ml; GA3-3-acetate at 0.025 and 0.25 mg/ml; GA5 at 0.025 and 0.25 mg/ml; GA9 at 0.025 and 0.04 mg/ml; and GA12 at 0.025 and 0.25 mg/ml. Stock solutions are prepared in ethanol in 50 ml plastic centrifuge tubes; deionized water is then added to make up the volumes to 30 ml. The final solutions contained 300 μl ethanol in 30 mls. […] Seeds are imbibed for 6 hours, and planted 1″ deep in a single row in moist to wet soil. They are then covered with dry soil, and the row is compacted twice with an all-terrain vehicle. Untreated dry seeds served as controls. The GA solutions are placed on dry ice until reuse the next day.
The next day, additional seeds of constitutive transgenic dwarf line 719 (50 seeds/treatment) are imbibed in the remaining treatment solutions for 5 hours, and planted in moist soil. The rows are compacted twice.

wild-type A3237 soybean = assay: Hilum treatment of soybean seeds, seedling growth and development, wild-type soybean; parameters: key to Emergence timing / Hypocotyl length (6 DAP) / 1st internode length (12 DAP) / 3rd internode length (20 DAP): pos: emergence faster/stem segment longer than controls; 0: emergence timing/stem segment length similar to controls; neg: emergence slower/stem segment shorter than controls; conditions: for 1st internode length (12 DAP) / Emergence timing / Hypocotyl length (6 DAP): single rate per compound 8.3-16.5 μg/seed
Summary of the method: (§1)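 GA compounds dissolved in ethanol were applied as 1 μl droplets, each dried before the next, to the hilum of GA-deficient transgenic line 719 (R5) or wild-type soybean seeds; ethanol alone served as control. Emergence was scored over time as cotyledons at or above soil level, with growth measured after prolonged development.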

[3] = system: GA-deficient transgenic soybean line 719 (R5); assay: Hilum treatment of soybean seeds, seedling growth and development, GA-deficient soybean; parameters: key to Emergence timing / Hypocotyl length (6 DAP) / 1st internode length (12 DAP) / 3rd internode length (20 DAP) / 2nd internode length (12 DAP): pos: emergence faster/stem segment longer than controls; 0: emergence timing/stem segment length similar to controls; neg: emergence slower/stem segment shorter than controls; conditions: for 1st internode length (12 DAP) / Emergence timing / Hypocotyl length (6 DAP): single rate per compound 8.3-16.5 μg/seed; for 2nd internode length (12 DAP) / 3rd internode length (20 DAP): single rate per compound 9.7-16.5 μg/seed; for stem elongation past the first internode: initial seed dose approximately 10 μg/seed
Summary of the method: as §1

[4] = system: constitutively GA-deficient transgenic dwarf soybean line 719; assay: Experiment II second greenhouse test, seed imbibition, GA-deficient soybean; conditions: seeds imbibed 6 hours
Procedure: (The compounds are tested in Experiment I at only one concentration, i.e., 0.25 mg/ml). Test tubes contained […] of ethanol solution per tube. Final volumes are made up to 30 ml with deionized water. After shaking, the treatment solutions (15 ml each) are transferred to each of two 50 ml test tubes. […] Twenty seeds are used in each treatment. Dry seed, ethanol/water-imbibed seed (1% ethanol in water, v/v), and water-imbibed seeds are included as controls. Seeds are imbibed for 6 hours in the test solutions, then planted in bread pans containing Metromix 350 (The Scotts Company, Marysville, Ohio), and covered with 0.5″ Metro-mix. Covered pans are transferred to the greenhouse and subirrigated. Illumination is at a light intensity of 300-400 μmolm^−2s^−1 photosynthetic photon flux; 16 hours light/8 hours dark. Subsequent waterings are also through sub-irrigation until the test is terminated three weeks later. Observations included the number of dwarf, intermediate, and tall plants; plant height; uniformity of rescue; and any visual effects. Digital photographs are also taken.

[5] = L719, hilum treatment, rate response

| Structure (SMILES) | effect in both the constitutive transgenic dwarf and wild-type soybean lines [1] | Observation on Transgenic Line 719 ([1]; seeds imbibed 5 hours) | Total Emerged ([2]; 0.025 mg/ml) | Total Emerged ([2]; 0.25 mg/ml) | Lowest rate where biological activity is observed, 1st internode length (10 DAP) (wild-type A3237 soybean; rate response) | Lowest rate where biological activity is observed, emergence timing (wild-type A3237 soybean; rate response) | Lowest rate where biological activity is observed, hypocotyl length (5 DAP) (wild-type A3237 soybean; rate response) | 1st internode length (12 DAP) (wild-type A3237 soybean) | Emergence timing (wild-type A3237 soybean) | Hypocotyl length (6 DAP) (wild-type A3237 soybean) | Lowest rate where biological activity is observed, 1st internode length (10 DAP) [3, 5] | Lowest rate where biological activity is observed, emergence timing [3, 5] | Lowest rate where biological activity is observed, hypocotyl length (5 DAP) [3, 5] | 1st internode length (12 DAP) ([3]; L719, hilum treatment) | Emergence timing ([3]; L719, hilum treatment) | Hypocotyl length (6 DAP) ([3]; L719, hilum treatment) | 2nd internode length (12 DAP) ([3]; L719, hilum treatment) | Significant Visual Observations on Line 719 ([4]; 0.0025 mg/ml) | Significant Visual Observations on Line 719 ([4]; 0.025 mg/ml) | Significant Visual Observations on Line 719 ([4]; 0.25 mg/ml) | further results |
| --- | --- | --- | --- | --- | --- | --- | --- | --- | --- | --- | --- | --- | --- | --- | --- | --- | --- | --- | --- | --- | --- |
| C=C1C[C@]23C[C@@]1(O)CC[C@H]2[C@@]12C=C[C@H](O)[C@@](C)(C(=O)O1)[C@H]2[C@@H]3C(=O)O [GA3, gibberellic acid] | excessive elongation | 3 | 15 | 9 | 1 μg/seed | 0.1 μg/seed | 0.1 μg/seed | 0 | pos | pos | 10 μg/seed | 0.1 μg/seed | 0.1 μg/seed | pos | pos | pos | 0 | Excessive elongation | Excessive elongation | Excessive elongation | Total Emerged ([2]; 0.5 mg/ml): 1; 3rd internode length (20 DAP) ([3]; L719, hilum treatment): 0; stem elongation past the first internode ([3]; hilum): not active beyond the first internode |
| C=C1C[C@]23C[C@@]1(O)CC[C@H]2[C@@]12C=C[C@H](OC(C)=O)[C@@](C)(C(=O)O1)[C@H]2[C@@H]3C(=O)O [GA3-3-acetate] | excessive elongation | 3 | 2 | 1 | – | – | – | 0 | pos | pos | – | – | – | pos | pos | pos | – | good rescue, with no overelongation | Poor rescue | Excessive elongation | Visual Observations on Transgenic Line 719 ([2]; 0.25 mg/ml): Overelongation |
| C=C1C[C@]23C[C@@]1(O)CC[C@H]2[C@@]12CC=C[C@@](C)(C(=O)O1)[C@H]2[C@@H]3C(=O)O [GA5] | excessive elongation | 4 | 21 | 3 | 1 μg/seed | 0.1 μg/seed | 1 μg/seed | pos | pos | pos | 1 μg/seed | 1 μg/seed | 0.1 μg/seed | pos | pos | pos | pos | Good rescue of dwarfs | good rescue, with no overelongation | Excessive elongation | Visual Observations on Transgenic Line 719 ([2]; 0.025 mg/ml): good emergence with good rescue; 3rd internode length (20 DAP) (wild-type A3237 soybean; rate 9.7 μg/seed): pos; Lowest rate where biological activity is observed, 3rd internode length (20 DAP) (wild-type A3237 soybean; rate response): 1 μg/seed; Lowest rate where biological activity is observed, 3rd internode length (20 DAP) [3, 5]: >1 μg/seed; 3rd internode length (20 DAP) ([3]; L719, hilum treatment): pos; rate giving increased internode elongation at internode number 3 ([3]; hilum): greater than or equal to 1 μg/seed; biological activity on the first internode of line 719 compared to GA3 and GA9 ([3]; hilum, rate response): approximately 10 times more; stem elongation past the first internode ([3]; hilum): measurable increases in internode length up to the third internode |
| C=C1C[C@]23C[C@H]1CC[C@H]2[C@@]12CCC[C@@](C)(C(=O)O1)[C@H]2[C@@H]3C(=O)O [GA9] | excessive elongation | 3 | 24 | – | 1 μg/seed | 0.1 μg/seed | 1 μg/seed | 0 | pos | pos | 10 μg/seed | 0.1 μg/seed | 0.1 μg/seed | pos | pos | pos | 0 | – | – | – | Visual Observations on Transgenic Line 719 ([2]; 0.025 mg/ml): good emergence with good rescue; also recorded: No dwarfs in plots; Total Emerged ([2]; 0.04 mg/ml): 11; 3rd internode length (20 DAP) ([3]; L719, hilum treatment): 0; Significant Visual Observations on Line 719 ([4]; 0.00125 mg/ml): Poor rescue; Significant Visual Observations on Line 719 ([4]; 0.0125 mg/ml): Good rescue of dwarfs; Significant Visual Observations on Line 719 ([4]; 0.125 mg/ml): good rescue, with no overelongation |
| C=C1C[C@]23C[C@H]1CC[C@H]2[C@]1(C)CCC[C@@](C)(C(=O)O)[C@H]1[C@@H]3C(=O)O [GA12] | rescue (elongated hypocotyls) with very little elongation | 1 | 28 | 9 | – | – | – | 0 | neg | neg | – | – | – | 0 | 0 | neg | – | Poor rescue | Incomplete rescue | good rescue, with no overelongation | effect on emergence timing and hypocotyl length ([3]; single rate, hilum): inhibited emergence timing and hypocotyl length |
| C=C1C[C@@]23CC[C@H]4[C@@](C)(CCC[C@@]4(C)C(=O)O)[C@@H]2CC[C@@H]1C3 [kaurenoic acid] | rescue (elongated hypocotyls) with very little elongation | 1 | 20 | 10 | – | – | – | 0 | 0 | 0 | – | – | – | 0 | pos | 0 | – | Poor rescue | Poor rescue | Poor rescue | Observation on Transgenic Line 719, remark in words ([1]; seeds imbibed 5 hours): some rescue; Visual Observations on Transgenic Line 719 ([2]; 0.025 mg/ml): Poor rescue; Visual Observations on Transgenic Line 719 ([2]; 0.25 mg/ml): Poor stand |
